In patent US7235536B2, “Cellulose sulfate and other sulfated polysaccharides to prevent and treat papilloma virus infection and other infections” (Rush Presbyterian-St. Luke's Medical Center, priority 2000, dated 2007):

Key:
[1] = tested on: Peptostreptococcus asaccharolyticus; assay: Broth method MIC; assay type: cell-based; details: for CS MIC: Broth (study 2)
BPV-1 = BPV-1 focus-forming assay, cells pre-incubated with compound and washed before virus (Table D); assay type: cell-based, bovine papilloma virus; details: for Average ± standard deviation (foci/well): C127-D10 cells, washed before virus
Protocol: Microbicidal activity of compounds was also tested by pre-incubation of cells with compounds followed by addition of virus to compound-coated C127 cells. In these experiments, dilutions of compounds were added to cultures of C127 cells, incubated for 1 hr at 37° C., washed 3 times with media to remove unbound compound, prior to addition of approximately 100 focus-forming units of BPV-1. The cultures were incubated for an additional hour, washed three times to remove unbound virus, then the incubation was continued for two weeks with media changes every 3-4 days and foci counted as described above.
Pre-incubation of C127-D10 cells with compounds prior to addition of BPV-1 was tested to determine whether the microbicidal effects of CS and DS extended to a blockage of virus interaction with cell surfaces. In these experiments, titrations of compounds were added to cell cultures followed by washing away unbound reagent prior to addition of virus. After a one-hour incubation with virus, unbound virus was removed by washing and the cultures monitored for foci after two weeks.

[2] = tested on: Fusobacterium gonidiaformans; assay: Broth method MIC; assay type: cell-based; details: for CS MIC: Broth (study 2)
[3] = tested on: Peptostreptococcus tetradius; assay: Broth method MIC; assay type: cell-based; details: for CS MIC: Broth (study 2)
Aspergillus niger = assay: Microbial challenge of CS gel; assay type: cell-based
Protocol: (§1) 6% CS was prepared in water as a translucent gel. Twenty grams of the gel was placed in a plastic screw-cap centrifuge tube. The microbial inoculants were prepared, gently vortexed and 0.1 ml inoculant was aseptically pipetted into the 20.0 gram gel. This procedure was repeated for each microbial organism. The samples were incubated at room temperature (20-25° C.) for 14 days or 28 days. The microbes tested and their theoretical yields can be found in Table F. After 14 or 28 days incubation, dilutions (10^−1, 10^−2, 10^−3) of the gels were made in saline and 1 ml plated onto Sabouraud dextrose (Aspergillus and Candida) or onto tryptic soy (other microbes). The number of organisms that grew after 3-7 days at room temperature were counted.
(§2) In another study, CS was dissolved in water at the concentrations indicated below. No other ingredients, including preservatives, were added. The gels were challenged with microbes as described above except that the gels were examined for the presence of microbes after 1, 2, 3, 4 and 7 days. The amount of microbes origially inoculated in the gels is also shown below.

Pseudomonas aeruginosa = assay: Microbial challenge of CS gel; assay type: cell-based
Protocol: as §1, §2

Candida albicans = assay: Microbial challenge of CS gel; assay type: cell-based
Protocol: as §1, §2

Eubacterium lentum = assay: Broth method MIC; assay type: cell-based; details: for CS MIC: Broth (study 2)
Prevotella disiens = assay: Broth method MIC; assay type: cell-based; details: for CS MIC: Broth (study 2)
Porphyromonas levii = assay: Broth method MIC; assay type: cell-based
[4] = CS gel in as low a concentration as 0.6%

sodium cellulose sulfate
growth inhibition ([1]; all strains): inhibited
CS MIC ([1]; rma# 11587): 10000 µg/mL
CS MIC ([1]; rma# 11607): 10000 µg/mL
Average ± standard deviation (foci/well) (BPV-1; 10 μg/ml): 103 ± 6.3 foci/well
Average ± standard deviation (foci/well) (BPV-1; 100 μg/ml): 120 ± 8.4 foci/well
Average ± standard deviation (foci/well) (BPV-1; 1,000 μg/ml): 87 ± 45.1 foci/well
Average ± standard deviation (foci/well) (BPV-1; 10,000 μg/ml): 2 ± 1.3 foci/well
microbicidal effects (BPV-1; C127-D10 cells pre-treated, except at 10 mg/ml): only weak microbicidal effects
growth inhibition ([2]; both strains, broth method): inhibited
CS MIC ([2]; rma# 11423): 5000 µg/mL
CS MIC ([2]; rma# 11653): 5000 µg/mL
growth inhibition ([3]; all strains): inhibited
CS MIC ([3]; rma# 11253): 5000 µg/mL
CS MIC ([3]; rma# 11287): 5000 µg/mL
Day 14 CFU/g (Aspergillus niger; 6% CS gel, ATCC 16404, room temperature, Day 14): 0 CFU/g
Day 28 CFU/g (Aspergillus niger; 6% CS gel, ATCC 16404, room temperature, Day 28): 0 CFU/g
Asperigillus niger CFU (Aspergillus niger; CS 0.06% in water, 24 hours): 0 CFU × 10^5/ml
Asperigillus niger CFU (Aspergillus niger; CS 0.06% in water, 48 hours): 0 CFU × 10^5/ml
Asperigillus niger CFU (Aspergillus niger; CS 0.06% in water, 72 hours): 0 CFU × 10^5/ml
Asperigillus niger CFU (Aspergillus niger; CS 0.06% in water, 96 hours): 0 CFU × 10^5/ml
Asperigillus niger CFU (Aspergillus niger; CS 0.06% in water, 7 days): 0 CFU × 10^5/ml
Asperigillus niger CFU (Aspergillus niger; CS 0.6% in water, 24 hours): 0 CFU × 10^5/ml
Asperigillus niger CFU (Aspergillus niger; CS 0.6% in water, 48 hours): 0 CFU × 10^5/ml
Asperigillus niger CFU (Aspergillus niger; CS 0.6% in water, 72 hours): 0 CFU × 10^5/ml
Asperigillus niger CFU (Aspergillus niger; CS 0.6% in water, 96 hours): 0 CFU × 10^5/ml
Asperigillus niger CFU (Aspergillus niger; CS 0.6% in water, 7 days): 0 CFU × 10^5/ml
Asperigillus niger CFU (Aspergillus niger; CS 1.2% in water, 24 hours): 0 CFU × 10^5/ml
Asperigillus niger CFU (Aspergillus niger; CS 1.2% in water, 48 hours): 0 CFU × 10^5/ml
Asperigillus niger CFU (Aspergillus niger; CS 1.2% in water, 72 hours): 0 CFU × 10^5/ml
Asperigillus niger CFU (Aspergillus niger; CS 1.2% in water, 96 hours): 0 CFU × 10^5/ml
Asperigillus niger CFU (Aspergillus niger; CS 1.2% in water, 7 days): 0 CFU × 10^5/ml
Asperigillus niger CFU (Aspergillus niger; CS 6% in water, 24 hours): 0 CFU × 10^5/ml
Asperigillus niger CFU (Aspergillus niger; CS 6% in water, 48 hours): 0 CFU × 10^5/ml
Asperigillus niger CFU (Aspergillus niger; CS 6% in water, 72 hours): 0 CFU × 10^5/ml
Asperigillus niger CFU (Aspergillus niger; CS 6% in water, 96 hours): 0 CFU × 10^5/ml
Asperigillus niger CFU (Aspergillus niger; CS 6% in water, 7 days): 0 CFU × 10^5/ml
inactivation of Asperigillus (Aspergillus niger; [4]): completely inactivated
inactivation of Pseudomonas (Pseudomonas aeruginosa; 6% CS gel): completely inactivated
Day 14 CFU/g (Pseudomonas aeruginosa; 6% CS gel, ATCC 9027, room temperature, Day 14): 0 CFU/g
Day 28 CFU/g (Pseudomonas aeruginosa; 6% CS gel, ATCC 9027, room temperature, Day 28): 0 CFU/g
Pseudomans aeruginosa CFU (Pseudomonas aeruginosa; CS 0.06% in water, 24 hours): 0 CFU × 10^5/ml
Pseudomans aeruginosa CFU (Pseudomonas aeruginosa; CS 0.06% in water, 48 hours): 0.48 CFU × 10^5/ml
Pseudomans aeruginosa CFU (Pseudomonas aeruginosa; CS 0.06% in water, 72 hours): 1.125 CFU × 10^5/ml
Pseudomans aeruginosa CFU (Pseudomonas aeruginosa; CS 0.06% in water, 96 hours): 1.87 CFU × 10^5/ml
Pseudomans aeruginosa CFU (Pseudomonas aeruginosa; CS 0.06% in water, 7 days): 2.04 CFU × 10^5/ml
Pseudomans aeruginosa CFU (Pseudomonas aeruginosa; CS 0.6% in water, 24 hours): 5.43 CFU × 10^5/ml
Pseudomans aeruginosa CFU (Pseudomonas aeruginosa; CS 0.6% in water, 48 hours): 6.80 CFU × 10^5/ml
Pseudomans aeruginosa CFU (Pseudomonas aeruginosa; CS 0.6% in water, 72 hours): 4.43 CFU × 10^5/ml
Pseudomans aeruginosa CFU (Pseudomonas aeruginosa; CS 0.6% in water, 96 hours): 6.92 CFU × 10^5/ml
Pseudomans aeruginosa CFU (Pseudomonas aeruginosa; CS 0.6% in water, 7 days): 6.05 CFU × 10^5/ml
Pseudomans aeruginosa CFU (Pseudomonas aeruginosa; CS 1.2% in water, 24 hours): 2.08 CFU × 10^5/ml
Pseudomans aeruginosa CFU (Pseudomonas aeruginosa; CS 1.2% in water, 48 hours): 2.625 CFU × 10^5/ml
Pseudomans aeruginosa CFU (Pseudomonas aeruginosa; CS 1.2% in water, 72 hours): 2.31 CFU × 10^5/ml
Pseudomans aeruginosa CFU (Pseudomonas aeruginosa; CS 1.2% in water, 96 hours): 2.82 CFU × 10^5/ml
Pseudomans aeruginosa CFU (Pseudomonas aeruginosa; CS 1.2% in water, 7 days): 4.79 CFU × 10^5/ml
Pseudomans aeruginosa CFU (Pseudomonas aeruginosa; CS 6% in water, 24 hours): 0 CFU × 10^5/ml
Pseudomans aeruginosa CFU (Pseudomonas aeruginosa; CS 6% in water, 48 hours): 0 CFU × 10^5/ml
Pseudomans aeruginosa CFU (Pseudomonas aeruginosa; CS 6% in water, 72 hours): 0 CFU × 10^5/ml
Pseudomans aeruginosa CFU (Pseudomonas aeruginosa; CS 6% in water, 96 hours): 0 CFU × 10^5/ml
Pseudomans aeruginosa CFU (Pseudomonas aeruginosa; CS 6% in water, 7 days): 0 CFU × 10^5/ml
inactivation of Pseudomonas (Pseudomonas aeruginosa; lower CS concentrations): not inactivated but growth was prevented
Day 14 CFU/g (Candida albicans; 6% CS gel, ATCC 10231, room temperature, Day 14): 0 CFU/g
Day 28 CFU/g (Candida albicans; 6% CS gel, ATCC 10231, room temperature, Day 28): 0 CFU/g
Candida albicans CFU (Candida albicans; CS 0.06% in water, 24 hours): 0 CFU × 10^5/ml
Candida albicans CFU (Candida albicans; CS 0.06% in water, 48 hours): 0 CFU × 10^5/ml
Candida albicans CFU (Candida albicans; CS 0.06% in water, 72 hours): 0 CFU × 10^5/ml
Candida albicans CFU (Candida albicans; CS 0.06% in water, 96 hours): 0 CFU × 10^5/ml
Candida albicans CFU (Candida albicans; CS 0.06% in water, 7 days): 0 CFU × 10^5/ml
Candida albicans CFU (Candida albicans; CS 0.6% in water, 24 hours): 0 CFU × 10^5/ml
Candida albicans CFU (Candida albicans; CS 0.6% in water, 48 hours): 0 CFU × 10^5/ml
Candida albicans CFU (Candida albicans; CS 0.6% in water, 72 hours): 0.62 CFU × 10^5/ml
Candida albicans CFU (Candida albicans; CS 0.6% in water, 96 hours): 0.655 CFU × 10^5/ml
Candida albicans CFU (Candida albicans; CS 0.6% in water, 7 days): 0.535 CFU × 10^5/ml
Candida albicans CFU (Candida albicans; CS 1.2% in water, 24 hours): 0 CFU × 10^5/ml
Candida albicans CFU (Candida albicans; CS 1.2% in water, 48 hours): 0 CFU × 10^5/ml
Candida albicans CFU (Candida albicans; CS 1.2% in water, 72 hours): 0 CFU × 10^5/ml
Candida albicans CFU (Candida albicans; CS 1.2% in water, 96 hours): 0 CFU × 10^5/ml
Candida albicans CFU (Candida albicans; CS 1.2% in water, 7 days): 0 CFU × 10^5/ml
Candida albicans CFU (Candida albicans; CS 6% in water, 24 hours): 0 CFU × 10^5/ml
Candida albicans CFU (Candida albicans; CS 6% in water, 48 hours): 0 CFU × 10^5/ml
Candida albicans CFU (Candida albicans; CS 6% in water, 72 hours): 0 CFU × 10^5/ml
Candida albicans CFU (Candida albicans; CS 6% in water, 96 hours): 0 CFU × 10^5/ml
Candida albicans CFU (Candida albicans; CS 6% in water, 7 days): 0 CFU × 10^5/ml
inactivation of Candida (Candida albicans; CS gel 1.2 and 6%): Complete inactivation
inactivation of Candida (Candida albicans; [4]): inactivated
growth inhibition (Eubacterium lentum; both strains): inhibited
CS MIC (Eubacterium lentum; rma# 9420): 5000 µg/mL
CS MIC (Eubacterium lentum; rma# 11700): 10000 µg/mL
growth inhibition (Prevotella disiens; all strains): inhibited
CS MIC (Prevotella disiens; rma# 11579): 10000 µg/mL
CS MIC (Prevotella disiens; rma# 11698): 10000 µg/mL
growth inhibition (Porphyromonas levii; both strains): inhibited
CS MIC (Porphyromonas levii; rma# 11425, Broth (study 1)): 600 µg/mL
CS MIC (Porphyromonas levii; rma# 11425, Broth (study 2)): 600 µg/mL
CS MIC (Porphyromonas levii; rma# 11601, Broth (study 1)): 300 µg/mL
CS MIC (Porphyromonas levii; rma# 11601, Broth (study 2)): 300 µg/mL
